How the values were obtained:
Assay in all cases: cells
[1] = test system: Tumor Cell line; format: functional; details: Homo sapiens
[2] = test system: HCT-116; format: functional; details: Homo sapiens
Description: The logarithmic molar concentration inhibiting 50% net cell growth was measured on HCT116 (M) colon cancer cell lines.

[3] = test system: Tumor Cell line; details: Homo sapiens, read-out: Log GI50 (converted)
[4] = test system: Tumor Cell line; details: Homo sapiens, read-out: Log GI50 (converted); remark: listed apart in the source
[5] = test system: HCT-116; format: functional; details: Homo sapiens; remark: listed apart in the source
Description: The logarithmic molar concentration inhibiting 50% net cell growth was measured on HCT116 (M)colon cancer cell lines (in experiment 2)

[6] = test system: HCT-116; format: functional; details: Homo sapiens; remark: listed apart in the source
Description: The logarithmic molar concentration inhibiting 50% net cell growth was measured on HCT116 (M)colon cancer cell lines (in experiment 1)

| Structure (SMILES) | GI50 [1] | GI50 [2] | further results |
| --- | --- | --- | --- |
| O=C1Cc2c([nH]c3ccc(Br)cc23)-c2cc(Br)ccc2N1 | 100 µM |  |  |
| COC(=O)CN1C(=O)Cc2c([nH]c3ccc(Br)cc23)-c2ccccc21 |  |  | GI50 [3]: 31.6 µM |
| O=C1Cc2c([nH]c3ccc(Br)cc23)-c2cc(O)c(O)cc2N1 | 100 µM |  |  |
| O=C1Cc2c([nH]c3ccccc23)-c2cc(Br)ccc2N1 | 100 µM | > 100 µM |  |
| O=C1Cc2c([nH]c3ccc(Br)cc23)-c2ccccc2N1Cc1ccccc1 [PAULLONE] |  | 20 µM | GI50 [4]: 31.6 µM; GI50 [3]: 100 µM |
| O=C1Cc2c([nH]c3ccc([N+](=O)[O-])cc23)-c2ccccc2N1 [ALSTERPAULLONE] |  |  | GI50 [4]: 0.398 µM; GI50 [3]: 0.316 µM |
| CN1C(=O)Cc2c([nH]c3ccc(Br)cc23)-c2ccccc21 |  |  | GI50 [4]: 31.6 µM |
| CSC1=Nc2ccccc2-c2[nH]c3ccc(Br)cc3c2C1 |  |  | GI50 [5]: 1.58 µM |
| O=C1Cc2c([nH]c3c(Cl)cccc23)-c2ccccc2N1 | 100 µM | > 100 µM |  |
| CCN1C(=O)Cc2c([nH]c3ccc(Br)cc23)-c2ccccc21 |  |  | GI50 [6]: > 100 µM; GI50 [5]: 12.6 µM; GI50 [4]: 25.1 µM; GI50 [3]: 12.6 µM |

The next lines start with results.

| GI50 [1] | GI50 [2] | Structure (SMILES) | further results |
| --- | --- | --- | --- |
| 50.1 µM |  | O=C1Cc2c([nH]c3c(Br)cccc23)-c2ccccc2N1 |  |
| 79.4 µM | 20 µM | N#Cc1ccc2[nH]c3c(c2c1)CC(=O)Nc1ccccc1-3 [PAULLONE 2] |  |
| 10 µM | 6.31 µM | ONC1=Nc2ccccc2-c2[nH]c3ccc(Br)cc3c2C1 |  |
| 0.0631 µM | 0.0251 µM | CN1CCC(c2c(O)cc(O)c3c(=O)cc(-c4ccccc4Cl)oc23)[C@@H](O)C1 (stereo not given in full) |  |
| 31.6 µM | 15.8 µM | O=C1Cc2c([nH]c3ccccc23)-c2ccccc2N1 [PAULLONE] |  |
| 15.8 µM | 3.16 µM | O=C1Cc2c([nH]c3cc(Br)ccc23)-c2ccccc2N1 |  |
| 39.8 µM |  | O=C1Cc2c([nH]c3ccc(Br)cc23)-c2ccccc2N1 [KENPAULLONE] |  |
| 63.1 µM | 79.4 µM | CCc1cccc2c3c([nH]c12)-c1ccccc1NC(=O)C3 |  |
| 79.4 µM |  | COc1cccc2c1NC(=O)Cc1c-2[nH]c2ccccc12 |  |
| 79.4 µM | 3.16 µM | O=C1Cc2c([nH]c3ccc(Cl)cc23)-c2ccccc2N1 |  |

Reference: ChEMBL document CHEMBL1132322, “Paullones, a series of cyclin-dependent kinase inhibitors: synthesis, evaluation of CDK1/cyclin B inhibition, and in vitro antitumor activity” (J Med Chem, 1999)
